“And” between values parts separate entries of the source, which are not always exact repeats. Identical values can stand only once.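 Method: 48-hour compound exposure of cells in 96-well plates, five concentrations, linear interpolation of endpoints. Abbreviation: GI50, concentration required for 50% inhibition of growth. TGI marks complete inhibition of growth.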

Some test systems named below: UACC-62 melanoma; BT-549 breast; T-47D breast; HCT-15 colon; 786-0 renal; A549 NSCLC; U251 CNS; MOLT-4 leukemia; HCT-116 colon; OVCAR-3 ovarian.
Assay in all cases: NCI-60 cell line screen, 48 h

For `O=C(O)c1ccccc1Nc1ccc2nnc(-c3ccncc3)n2n1`, the GI50 in the assay on UACC-62 melanoma was 5.18 µM; in the assay with BT-549 breast, 2.59 µM; in the assay on T-47D breast it was 4.3 µM; in the assay with HCT-15 colon it was 6.88 µM; in the assay on 786-0 renal it was 4.64 µM; in the assay on A549 NSCLC, 13.3 µM. The GI50 is 13.3 µM with U251 CNS, 6.99 µM in the assay with MOLT-4 leukemia, 4.09 µM in the assay with HCT-116 colon and 9.7 µM in the assay on OVCAR-3 ovarian. Also, the TGI came to 19.5 µM with UACC-62 melanoma; 8.33 µM with BT-549 breast; 22.3 µM in the assay on T-47D breast; 66.3 µM in the assay with HCT-15 colon; 19.7 µM in the assay on 786-0 renal; 62 µM in the assay with A549 NSCLC. Besides, the TGI with U251 CNS is 28 µM; in the assay on MOLT-4 leukemia, > 100 µM; in the assay on HCT-116 colon, 21 µM; in the assay on OVCAR-3 ovarian, 24.8 µM.

Take `CCN(CC)CC[n+]1cc2cc(OC)c(OC)cc2c2ccc3cc4c(cc3c21)OCO4`: the GI50 with UACC-62 melanoma is 1.22 µM; in the assay with BT-549 breast it was 1.11 µM; with T-47D breast it was 0.378 µM; in the assay on HCT-15 colon, 1.68 µM; in the assay on 786-0 renal it was 0.903 µM; in the assay with A549 NSCLC, 0.376 µM. Moreover, the GI50 with U251 CNS is 0.308 µM; in the assay on MOLT-4 leukemia it was 0.37 µM; in the assay on HCT-116 colon, 0.404 µM; in the assay on OVCAR-3 ovarian, 0.96 µM. Moreover, the TGI with UACC-62 melanoma turned out to be 4.89 µM; in the assay on BT-549 breast, 2.88 µM; with T-47D breast, 12.1 µM; in the assay on HCT-15 colon it was 4.51 µM; in the assay on 786-0 renal, 3.78 µM; with A549 NSCLC, 1.84 µM. Besides, the TGI worked out at 1.29 µM in the assay on U251 CNS, 4.64 µM with MOLT-4 leukemia, 1.66 µM in the assay with HCT-116 colon and 2.33 µM with OVCAR-3 ovarian.

For `CC(C)(C)c1cc(-c2nc3c(F)c(F)c(F)c(F)c3[nH]2)cc(C(C)(C)C)c1O`, the GI50 in the assay with UACC-62 melanoma, in the assay with BT-549 breast, in the assay with T-47D breast, with HCT-15 colon, with 786-0 renal and with A549 NSCLC was > 100 µM in each case. Also, the GI50 in the assay on U251 CNS, in the assay with MOLT-4 leukemia, in the assay with HCT-116 colon and in the assay on OVCAR-3 ovarian was > 100 µM in each case. Besides, the TGI in the assay with UACC-62 melanoma, in the assay on BT-549 breast, in the assay with T-47D breast, with HCT-15 colon, in the assay with 786-0 renal and in the assay on A549 NSCLC was > 100 µM in each case. The TGI with U251 CNS, with MOLT-4 leukemia, with HCT-116 colon and in the assay with OVCAR-3 ovarian was > 100 µM each time.

Regarding `Nc1ncnc2c1ncn2C1OC(COC2C(CO)OC(OC(C(=O)O)C(O)C(OP(=O)(O)O)C(O)C(=O)O)C(O)C2O)C(O)C1O` (stereo unspecified), the TGI in the assay with BT-549 breast, with HCT-15 colon, in the assay on 786-0 renal, in the assay with A549 NSCLC, with U251 CNS and in the assay with MOLT-4 leukemia was > 100 µM in each case. The TGI in the assay with HCT-116 colon and in the assay with OVCAR-3 ovarian was > 100 µM in each case.

`COc1ccc(C2c3c(-c4ccccc4)nn(-c4ccccc4)c3Oc3ncn4nc(CC#N)nc4c32)cc1OC` (stereo unspecified): the GI50 in the assay with BT-549 breast was 19.9 µM and 8.82 µM; with 786-0 renal, 8.4 µM and 2.09 µM; with A549 NSCLC, > 100 µM and 13.7 µM; in the assay with U251 CNS it was 23.5 µM and 3.62 µM; in the assay on HCT-116 colon, 40.7 µM and 9.55 µM; with OVCAR-3 ovarian it was 75.4 µM and 10.3 µM. The TGI in the assay on BT-549 breast was 59.2 µM and > 41.6 µM; with T-47D breast, > 54 µM; with HCT-15 colon it was > 100 µM; in the assay with 786-0 renal, 20.7 µM and 5.51 µM; in the assay on A549 NSCLC it was > 100 µM and 68.1 µM; in the assay with U251 CNS it was 63.8 µM and 16.7 µM. Besides, the TGI in the assay with MOLT-4 leukemia, in the assay with HCT-116 colon and with OVCAR-3 ovarian was > 100 µM each time.

As for `Cc1ccc(NC(=O)c2cc3ccccc3cc2O)c(C)c1.Cc1ccc(NC(=O)c2cc3ccccc3cc2[O-])c(C)c1.[Ni+2]`, the GI50 in the assay with UACC-62 melanoma is 4.91 µM; with BT-549 breast, 2.44 µM; with T-47D breast, 3.08 µM; in the assay on HCT-15 colon it was 3.24 µM; in the assay with 786-0 renal it was 3.77 µM; with A549 NSCLC, 3.44 µM. Further, the GI50 in the assay with U251 CNS was 2.91 µM; in the assay on HCT-116 colon, 2.79 µM; in the assay with OVCAR-3 ovarian, 4.23 µM. The TGI in the assay on UACC-62 melanoma is 21.2 µM; with BT-549 breast it was 7.55 µM; in the assay on T-47D breast, 14.8 µM; with HCT-15 colon it was 17.2 µM; in the assay with 786-0 renal, 14.6 µM; in the assay on A549 NSCLC, 15.6 µM. Also, the results for the TGI with U251 CNS, in the assay on HCT-116 colon and with OVCAR-3 ovarian were 8.62 µM, 11.4 µM and 20.6 µM, respectively.

As for `Cc1c(-c2nnc(-c3cc(Cl)c(Cl)cc3Cl)o2)nnn1-c1ccnc2c(C(F)(F)F)cccc12`, the GI50 in the assay with UACC-62 melanoma was 26.5 µM; with T-47D breast, 21.7 µM; in the assay with HCT-15 colon, 31.5 µM; in the assay with 786-0 renal, 33.8 µM; in the assay on A549 NSCLC, 17.8 µM; in the assay with U251 CNS, 19.3 µM. Besides, the GI50 with MOLT-4 leukemia was 36.9 µM; with HCT-116 colon it was 17.9 µM; in the assay with OVCAR-3 ovarian, 27.5 µM. The TGI in the assay with UACC-62 melanoma was > 100 µM; in the assay on T-47D breast it was 77.4 µM; in the assay on HCT-15 colon, > 100 µM; in the assay with 786-0 renal, > 100 µM; with A549 NSCLC it was 42.9 µM; with U251 CNS, 37.4 µM. Besides, the TGI was > 100 µM with MOLT-4 leukemia, 34.8 µM in the assay with HCT-116 colon and 82.7 µM in the assay on OVCAR-3 ovarian.

Turning to `CC(C)c1ccc2nc3ccc(C(=O)NCCN4CCN(c5ccccc5)CC4)cn3c(=O)c2c1`, the TGI with UACC-62 melanoma, with BT-549 breast, in the assay on HCT-15 colon, in the assay on 786-0 renal, in the assay with A549 NSCLC and in the assay on U251 CNS was > 100 µM throughout. The TGI in the assay on HCT-116 colon and in the assay with OVCAR-3 ovarian was > 100 µM throughout.

As to `Nc1nc(-c2cccs2)cs1`, the TGI in the assay with UACC-62 melanoma, in the assay with BT-549 breast, in the assay on T-47D breast, in the assay on HCT-15 colon, with 786-0 renal and in the assay on A549 NSCLC was > 100 µM each time. Also, the TGI in the assay on U251 CNS, with HCT-116 colon and with OVCAR-3 ovarian was > 100 µM throughout.

`C/C=C/C1=CN2C(=O)c3cc(OC4OC(C)C(NC)C(C)(O)C4O)c(C)c(O)c3N=C[C@@H]2C1` (stereo partly specified): the GI50 is 0.0918 µM and < 0.01 µM in the assay on UACC-62 melanoma; 0.065 µM in the assay on 786-0 renal; 0.043 µM and < 0.01 µM in the assay with U251 CNS; 0.0413 µM and < 0.01 µM in the assay on MOLT-4 leukemia; 0.203 µM with OVCAR-3 ovarian. Also, the TGI in the assay with T-47D breast was 15.3 µM; with HCT-15 colon, 11 µM; in the assay on A549 NSCLC it was 24.8 µM; with U251 CNS, 12.5 µM; with HCT-116 colon, 11.9 µM.
